Reference: US6610699B2, “Use of L-carnitine and its alkanoyl derivatives in the preparation of medicaments with anticancer activity” (Sigma-Tau Industrie Farmaceutiche Riunite S.p.A., priority 1998, dated 2003)

Legend:
[1] = system: M109 murine lung cancer; details: for Size of metastases / number of lung metastases (Mean ± SD): day 22 after inoculation
Procedure: The animals were kept under observation up to day 22 after inoculation of the M109 murine lung cancer cells, and were then sacrificed the lungs removed to determine the number of metastases.
Determination of the number of lung metastases: on day 22 after inoculation of M109 murine lung cancer, the study animals were sacrificed by cervical dislocation. Their lungs were then removed and kept for approximately 5-7 days in 5 ml of Bouin's solution with the following composition: 71% as saturated picric acid solution (Merck), and 24% as 10% formaldehyde (Fluka). When lung metastases were evident, their numbers were counted.
Statistical analysis of the data for tumour size and number of lung metastases was carried out using the non-parametric Mann-Whitney test for unpaired data.

[2] = system: BALB/c mice inoculated with murine carcinoma of the breast (L-MM3); assay: Taxol-induced neutropenia in mice with L-MM3 carcinoma of the breast, blood cell count
Procedure: In addition, in this tumour model, the amount of circulating neutrophils was measured.
Acetyl L-carnitine inner salt (sterile ampoule), solubilised in water for injectable preparations, was used. Each ampoule of ALC is dissolved in 4 ml of water for injections (Solution O). 0.8 ml of (O) are brought to 50 ml with sterile PBS (Sigma) in order to perform the oral administration (100 mg/kg/50 ml).
(§1) At the time of use, the 12 mg/ml solution is diluted 1:4 with saline in phosphate buffer (PBS) (SIGMA,) and injected i.p. (30 mg/kg/10 ml).
Animals: 120 female BALB/c mice weighing 18-20 g (Harlan)
Treatment schedule 1: the transplantable murine breast cancer cells (L-MM3) of Balb/c origin are grown at 37° C. in plastic flasks in a 5% CO2 humidified incubator in DMEM medium containing 5% heat-inactivated FCS, L-glutamine 2 mM, and gentamicin 80 μg/ml. At the time of inoculation, the cells are detached with trypsin-EDTA and re-suspended in the same medium without […].
Unanaesthetised female Balb/c mice received subcutaneous injections in the flank of 4×10^5 cells in 0.2 ml of DMEM.
Four days after inoculation of the tumour, the animals were treated with the molecules according to the following schedule, for the purposes of evaluating neutropenia:
ALC is administered then for 10 days; the animals are sacrificed after 6 hours.
The experimental groups, each consisting of 15 mice, are:
Blood and bone marrow samples are taken for the first treatment schedule animals. On the days they are sacrificed, the mice are anaesthetised with CO2; blood is taken from the retro-orbital plexus (0.5 ml blood/mouse) and placed in Eppendorf test tubes containing 10 μl of Vister heparin (5000 U/ml). The animals are sacrificed by cervical dislocation. Later, the bone marrow samples are taken.
(§2) The instrument is used according to the instructions provided in the operating manual. The blood (25 μl) is taken from the dilutor and brought to a volume of 10 ml with isotonic solution (PLTA Saline, Delcon) in a beaker (dil. 1:400) (Solution A). From Solution A, the dilutor takes 100 μl and brings them to 10 ml (dil. 1:100) in another beaker (Solution B). To Solution A are added 3 drops of lysing agent (Emosol, Delcon), the solution is mixed by hand and left to act for approximately 2 minutes so that the red blood cells are lysed and HGB (haemoglobin) released. Solution A containing the lysing agent is used for the WBC and haemoglobin (HGB) readings. Solution B is used for the RBC and platelet (PLT) readings.
(§3) Double readings are done on each sample, and between one sample and the next, the instrument is washed using isotonic solution, Superfrost plus slides (25×75×1 mm) (Mensel-Glaser), ready for use, are adopted. The blood (8 μl) is deposited on the right-hand side of the slide; another slide, placed at a 45° angle, to the left of the blood, is drawn back until in comes into contact with the drop which spreads rapidly along the contact line between the two slides; the slide is moved forwards with a smooth, rapid movement so as to obtain a thin film of blood. The slide is left to dry in air, stained with Diff-Quick (DADE) dye, according to the attached instructions, and dried again in air.
(§4) The slides are immersed in Histolemon solution (Carlo Erba) for 2 sec.; a drop of synthetic mountant (Shandon) is deposited at the centre of the slide and a cover slide is placed over it covering the entire blood smear, taking care not to form bubbles between the two slides. The slides are dried and then the WBC count is performed, up to 100, with an optical microscope, after depositing a drop of cedar oil on the slide.
(§5) The quantity of […], assessed using the haemocytometer, is multiplied by the percentage value of the corresponding neutrophil granulocytes of the leukocyte formula. This parameter, divided by 100, expresses the value of neutrophils/mm^3 blood.
Comparison between the neutrophil granulocyte values obtained for the different groups is done using ANOVA.

[3] = system: female BALB/c mice; assay: Taxol (i.p.)-induced neutropenia in the mouse, blood cell count
Procedure: In this model, the amount of circulating neutrophils was measured.
Acetyl L-carnitine inner salt (sterile ampoule), solubilised in water for injectable preparations, was used. Each ampoule of ALC is dissolved in 4 ml of water for injections (Solution O). Two ml of (O) are brought up to 25 ml with sterile PBS (Sigma), so as to have 10 mg/ml for subcutaneous administration (100 mg/kg/ 10 ml); 0.8 ml of (O) are brought to 50 ml with PBS in order to have 2 mg/ml for oral administration (100 mg/kg/50 ml).
as §1
The mice are anaesthetised with CO2; blood is taken from the retro-orbital plexus (0.5 ml blood/mouse) and placed in Eppendorf test tubes containing 10 μl of Vister heparin (5000 U/ml). The animals are sacrificed by cervical dislocation. Later, the bone marrow samples are taken.
as §2
Double readings are done on each sample, and between one sample and the next, the instrument is washed using isotonic solution,
as §3, with “Superfrost” for “Double readings are done on each sample, and between one sample and the next, the instrument is washed using isotonic solution, Superfrost”
as §4, with “(Shandon) os” for “(Shandon) is”
as §5
Data are expressed as means ±SE. Comparison between the neutrophil granulocyte values obtained for the different groups is done using ANOVA. Abnormal values are subjected to the Dixon test.

[4] = system: L-MM3 murine breast cancer cells; assay: L-MM3 murine breast cancer in Balb/c mice, taxol and PLC, Experiment A (schedule A)
Procedure: Cell cultures of L-MM3 murine breast cancer cells were used, cultured at 37° C. in plastic flasks in a humidified atmosphere with 5% CO^2. The cells were grown in DMEM supplemented with 10% FCS and in the presence of 2 mM L-glutamine and 80 μg/ml of gentamicin. The subconfluent cells were collected during the exponential growth phase using trypsin-EDTA and re-suspended in DMEM. They were then injected subcutaneously in female Balb/c mice weighing 20 g at a density of 4×10^5.
The tumour was measured with a calliper three times a week as soon as it became palpable. The tumour mass is calculated on the basis of the measurements of the two dimensions (length and width), expressed in mm, according to the following formula: [formula]
If we consider conventionally a tumour density equal to 1, the result is that the tumour volume is equal to (mm^3=mg).
The agent is weighed, solubilised in the specific vehicle (12 mg/ml), and stored at +4° C., sheltered from the light. At the time of use, it is diluted 1:4 with saline solution in phosphate buffer (PBS, SIGMA) and injected.
Cremophor is diluted 1:1 with ethanol and stored sheltered from the light. On the day of treatment it is diluted 1:4 with PBS.

[5] = system: murine cancer of the breast (L-MM3); assay: L-MM3 tumour growth in Balb/c mice (taxol and ALC); assay type: in vivo, mouse
Procedure: Treatment schedule 1: the transplantable murine breast cancer cells (L-MM3) of Balb/c origin are grown at 37° C. in plastic flasks in a 5% CO2 humidified incubator in DMEM medium containing 5% heat-inactivated FCS, L-glutamine 2 mM, and gentamicin 80 μg/ml. At the time of inoculation, the cells are detached with trypsin-EDTA and re-suspended in the same medium without PBS.
Treatment schedule 2: the same experimental groups mentioned above, each consisting of 15 mice (with different cage numbers) are treated as follows in order to evaluate survival and tumour size.
ALC administration lasts 14 days (in groups 16, 17, 18) and the tumour is measured until it reaches a size of approximately 2 cm. The animals are left alive for 100 days.
The tumour size (length and width) is measured twice a week with a calliper, from the tumour is measurable. Tumour size is expressed in cm and is evaluated according to the following formula: (length×width).
Tumour sizes are compared using the non-parametric Mann Whitney test for unpaired data.

[6] = L-MM3-bearing mice, sacrifice 6 hours after last taxol
[7] = 6 hours after last administration (Table 4)
[8] = taxol 30 mg/kg i.p. x4, ALC 100 mg/kg, sacrifice 6 hours after last taxol administration
[9] = taxol 30 mg/kg i.p. x4 on alternate days, ALC 100 mg/kg, sacrifice 6 hours after last taxol administration
[10] = taxol i.p., sacrifice 3 days after last taxol administration
[11] = three days after last administration (Table 5)

CC(=O)O[C@H](CC(=O)[O-])C[N+](C)(C)C [Vehicle + ALC, acetyl L-carnitine]
Size of metastases [1]: M, S | number of lung metastases (Mean ± SD) [1]: **77 ± 13.2 | Absolute neutrophils [2, 6]: ***607 ± 68 ^ /mm^3 | Lymphocytes [2, 6]: 87.6 ± 0.9% | Neutrophils [2, 6]: 12.3 ± 0.9% | Platelets [2, 6]: 433000 ± 45731 mm^3 | WBC ([2]; L-MM3-bearing mice, taxol 30 mg/kg i.p. x4, ALC 100 mg/kg os 10 days, sacrifice 6 hours after last taxol): 4950 ± 385 Mm^3 | changes in neutrophils compared to vehicle alone or untreated animals (in words) [3, 7]: no changes | Absolute neutrophils [3, 8]: 511 ± /mm^3 | Lymphocytes [3, 8]: 91.5% | Neutrophils [3, 8]: 8.5% | WBC [3, 9]: 5950 Mm^3 | Absolute neutrophils [3, 10]: 625 ± /mm^3 | Lymphocytes [3, 10]: 89.2% | Neutrophils [3, 10]: 10.7% | WBC [3, 10]: 6067 Mm^3 | changes in neutrophils compared to vehicle alone or untreated animals (in words) [3, 11]: no changes

CC(=O)O[C@H]1C(=O)[C@@]2(C)[C@H]([C@H](OC(=O)c3ccccc3)[C@]3(O)C[C@H](OC(=O)[C@H](O)[C@@H](NC(=O)c4ccccc4)c4ccccc4)C(C)=C1C3(C)C)[C@]1(OC(C)=O)CO[C@@H]1C[C@@H]2O [Taxol, paclitaxel, reference compound]
Animals with tumours/total number of animals, Day 22 [4]: 6/13 | Animals with tumours/total number of animals, Day 25 [4]: 7/13 | Animals with tumours/total number of animals, Day 28 [4]: 9/13 | Animals with tumours/total number of animals, Day 36 [4]: 11/13 | Animals with tumours/total number of animals, Day 46 [4]: 11/13 | Animals with tumours/total number of animals, Day 19 ([4]; taxol 30 mg/kg i.p. days 15,17,19,21, PLC 100 mg/kg s.c. days 12-24): 6/13 | Size of metastases [1]: S (S = Small (<1 mm diam)) | number of lung metastases (Mean ± SD) [1]: **9 ± 7.3 | Lymphocytes ([2]; mouse, in vivo): 98.6 ± 0.2% | Neutrophils ([2]; mouse, in vivo): ****1.3 ± 0.2^ % | Platelets ([2]; mouse, in vivo): 539000 ± 36057 mm^3 | neutrophil granulocytes vs vehicle ([3]; mouse, in vivo): −64% | reduction in neutrophils ([3]; mouse, in vivo): 98% | Absolute neutrophils ([3]; mouse, in vivo, ip): ****250 ± /mm^3 | Lymphocytes ([3]; mouse, in vivo, ip): 95.5% | Neutrophils ([3]; mouse, in vivo, ip): 4.5% | WBC ([3]; mouse, in vivo, ip): 5855 Mm^3 | L-MM3 tumour size ([5]; taxol 30 mg/kg i.p. every two days x4, when control tumours reached approximately 2 cm (control 1.8 cm)): 0.56 cm

CC(=O)O[C@H](CC(=O)[O-])C[N+](C)(C)C [ALC, acetyl L-carnitine]
effect on the formation of lung metastases (in words) ([1]; ALC 100 mg/kg os): mild inhibitory effect | neutrophil granulocytes ([2]; acetyl L-carnitine 100 mg/kg os once daily for 10 days combined with taxol 30 mg/kg i.p. x4): 335 /mm^3 | changes in neutrophils compared to vehicle alone or untreated animals (in words) [3, 7]: no changes | polymorphonucleates, change under taxol with acetyl L-carnitine ([3]; acetyl L-carnitine 100 mg/kg oral (os) with taxol 30 mg/kg i.p. x4): −23% | polymorphonucleates, change under taxol with acetyl L-carnitine ([3]; acetyl L-carnitine 100 mg/kg subcutaneous (sc) with taxol 30 mg/kg i.p. x4): 8-43% | Absolute neutrophils [3, 8]: 708 ± /mm^3 | Lymphocytes [3, 8]: 88.7% | Neutrophils [3, 8]: 11.2% | WBC [3, 9]: 6452 Mm^3 | Absolute neutrophils [3, 10]: 691 ± /mm^3 | Lymphocytes [3, 10]: 89.9% | Neutrophils [3, 10]: 10.1% | WBC [3, 10]: 6920 Mm^3 | changes in neutrophils compared to vehicle alone or untreated animals (in words) [3, 11]: no changes | effect on the anticancer activity of taxol (in words) ([5]; ALC 100 mg/kg os once daily for 14 days plus taxol 30 mg/kg i.p. x4): did not affect the anticancer activity of taxol
